{"source": "patent US20060020042A1", "about": "“Memantine for the treatment of mild and mild to moderate Alzheimer's disease” (Forest Laboratories, Inc., priority 2004, published 2006)", "key": {"[1]": {"tested_on": "outpatients with mild-to-moderate Alzheimer's disease", "test": "ADAS-cog in randomized, double-blind, placebo-controlled study", "format": "in vivo, human", "conditions": "for ADAS-cog Non-Responder, number of patients / ADAS-cog Responder (change from baseline <= -4), number of patients / ADAS-cog Difference (memantine minus placebo, LS mean): Week 24, ITT; for ADAS-cog Difference (memantine minus placebo, LS mean): 20 mg/day", "from_the_text": "The present invention is based on results from a randomized, double-blind, placebo-controlled, multi-center, parallel-group study comparing memantine to placebo in outpatients diagnosed with probable AD according to […] criteria. Severity of mild to moderate was established using the Mini-Mental State Examination (MMSE) score (≧10 and ≦22; 0 is the lowest score and 30 is the highest score). In the study of the present invention, there were approximately 400 patients enrolled across 42 centers. Evaluation of primary efficacy was achieved by Alzheimer's Disease Assessment Scale-cognitive subscale (ADAS-cog) and the Clinician's Interview-Based Impression of Change including caregiver information (CIBIC-plus). Secondary efficacy was determined using Alzheimer's disease Cooperative Study-Activities of Daily Living (ADCS-ADL) and Neuropsychiatric Inventory (NPI) criteria. The ADAS-cog comprises an 11-item scale that is used to assess the severity of selected areas of cognitive impairment (memory, language, orientation, reason and praxis). Scores range from 0 to 70 with lower scores indicating lesser severity and a score of 70 representing the worst cognitive impairment. Its use in assessing and following changes in patients with mild to moderate Alzheimer's disease has been extensively validated. The ADAS-cog was administered at each clinic visit starting with the Baseline visit and at the end of weeks 4, 8, 12, 18 and 24 (or upon early termination). The study consisted of 1-2 weeks of single-blind placebo treatment followed by 24 weeks of double-blind treatment. Results were evaluated over seven clinical visits; at initial screening, baseline, and the end of weeks 4, 8, 12, 18 and 24. The population of patients who received at least one dose of double-blind memantine, and completed at least one post-baseline efficacy evaluation of either the ADAS-cog or the CIBIC-plus is designated the “intent-to-treat” (ITT) population. The population of randomized patients who received at least one dose of double-blind study medication is designated the “safety population”. The randomized population designates all patients randomized into the study. This study was conducted as a fixed-dose study. All patients assigned to the memantine group received an initial dose of 5 mg per day; the dose was titrated in 5 mg weekly increments to a final dose of 20 mg/day (administered as two 5 mg tablets twice a day). Study drug was provided as blister packs containing masked study medication such that placebo and memantine tablets were visually identical, and all patients received four tablets of study medication daily (in combinations of memantine 5 mg tablets and matching placebo tablets). Transient dose adjustments were permitted between weeks 3 and 8 for patients experiencing dose-limiting adverse events. However, all patients were required to receive the target dose of 20 mg/day by the end of week 8. Patients not able to tolerate the target dose by week 8 were discontinued from the study. Statistical analysis. For primary efficacy measurements, (e.g., change from Baseline (visit 2) to Week 24 in the total ADAS-cog scores from the ITT population) the comparison between memantine and placebo were performed using two-way analysis of covariance (ANCOVA) with treatment group and center as the two factors, and the baseline scores as covariate. Both the Last Observation Carried Forward (LOCF) imputation approach and the Observed Cases (OC) approach were performed at week 24. Results of ANCOVA were summarized using least square (LS) means for each treatment group with corresponding standard error (SE), the between-treatment (2-24 week) difference in the least square means with corresponding 95% confidence interval, and the between-treatment p-value corresponds to the SAS Type III sum of squares."}, "[2]": {"tested_on": "brain glucose metabolism in mild-to-moderate AD subjects", "test": "FDG PET regional brain glucose metabolism", "format": "in vivo, human", "conditions": "24 weeks of 20 mg/day", "method": "Drug treatment. As stated above, patients were randomized to receive 20 mg/day (10 b.i.d.) memantine or placebo for 24 weeks. PET scans were performed for 10 (5 receiving memantine and 5 receiving placebo) patients at baseline and at the end of week 24.\nPET Scan Acquisition. Subjects were PET scanned at the University of California, Irvine Brain Imaging Center using a GE 2048-15B dedicated head scanner. Thirty slices at 6.5-mm intervals (15 in each of two sets) were obtained so as to cover the entire brain. Attenuation correction was performed by obtaining a transmission scan using a ^68Ge pin source. A thermosetting plastic facemask was used to hold the subject stationary during the 60 minutes of total image acquisition. Scans were reconstructed with a blank and a transmission scan. PET image count was used for study analyses and adjusted for intrasubject global differences using normalization (proportional scaling).\nPET Image Methodology and Analysis. Differences in regional FDG uptake were analyzed using SPM99 software (Wellcome Department of Cognitive Neurology, London, UK), implemented on the Matlab platform (MathWorks Inc., Sherborn, Mass.). Statistical parametric maps (SPMs) are spatially extended statistical processes that are constructed to test hypotheses about regionally specific effects in neuroimaging data. […]"}, "[3]": {"conditions": "cited from earlier work"}}, "data": [{"compound": "CC12CC3CC(C)(C1)CC(N)(C3)C2", "note": "[Memantine, 1-amino-3,5-dimethyladamantane]", "values": [{"measurement": "ADAS-cog Non-Responder, number of patients", "setting": "[1]; LOCF analysis", "result": "158/148"}, {"measurement": "ADAS-cog Responder (change from baseline <= -4), number of patients", "setting": "[1]; LOCF analysis", "result": "40/47"}, {"measurement": "ADAS-cog Difference (memantine minus placebo, LS mean)", "setting": "[1]; LOCF analysis, p=0.003", "result": "−1.9"}, {"measurement": "ADAS-cog Non-Responder, number of patients", "setting": "[1]; OC analysis", "result": "129/126"}, {"measurement": "ADAS-cog Responder (change from baseline <= -4), number of patients", "setting": "[1]; OC analysis", "result": "33/34"}, {"measurement": "ADAS-cog Difference (memantine minus placebo, LS mean)", "setting": "[1]; OC analysis, p=0.130", "result": "−1.1"}, {"measurement": "ADAS-cog LS mean change", "setting": "[1]; week 8, LOCF, placebo 0.2, p 0.003", "result": "−1.2"}, {"measurement": "ADAS-cog LS mean change", "setting": "[1]; week 8, OC, placebo 0.2, p=0.006", "result": "−1.1"}, {"measurement": "ADAS-cog LS mean change", "setting": "[1]; week 12, LOCF, placebo -0.1, p=0.009", "result": "−1.4"}, {"measurement": "regional brain glucose metabolic activity (FDG PET) compared to baseline", "setting": "[2]; 5 patients, CNS incl. cerebral cortex, cerebellum, brainstem, p<0.025", "result": "metabolic increases"}, {"measurement": "regional brain glucose metabolism (FDG PET) compared to baseline", "setting": "[2]; isolated region of left visual cortex and left putamen", "result": "decreases in glucose metabolism"}, {"measurement": "solubility in aqueous media", "setting": "[3]", "result": "highly soluble"}]}]}
